Assay results published in US10849915B2, “Methods for treating inflammatory bowel disease using prostate specific membrane antigen (PSMA) inhibitors” (The Johns Hopkins University, priority 2014, dated 2020).

What was measured:
DSS-induced colitis = test: DSS-induced murine model of colitis; type: in vivo, mice (C57/B6)
From the text: DSS-induced colitis model was generated as described previously (Alex et al., 2009; Alex et al., 2010). […] The fact that mutations in either IL-10 or IL-10 receptors in human lead to spontaneous Crohn's disease at very early age (usually less than 1 year old) (Glocker et al., 2011), further emphasize the critical role of IL-10 signaling pathway in its anti-inflammatory and immune-modulatory effects in the gut and the homeostasis of healthy gut.

[1] = test system: spontaneous colitis in IL-10 KO mice; test: IL-10 knockout mice with spontaneous colitis; type: in vivo, mice (C57/B6)
[2] = 2-PMPA 100 mg/kg i.p., daily for 8 days, DSS mice, 2 h after dosing on day 8
Experimental: Blood and colonic mucosa were collected for drug PK analysis. Plasma was generated from blood by centrifugation and all samples were stored at −80° C. until further analysis. Concentrations of inhibitors in plasma and tissue were determined via LC/MS/MS as described previously (Rais et al., 2013). Briefly, 2-PMPA was extracted from plasma and tissue by protein precipitation with 5× methanol containing 2-(phosphonomethyl) succinic acid (2-PMSA; 1 μM) as an internal standard. The samples were vortexed (30 s) and centrifuged (10,000 g for 10 min). Supernatant was dried under a gentle stream of nitrogen at 45° C. and the residue was reconstituted with 100 μL of acetonitrile and vortexed. 50 μL of derivatizing agent N-tert-Butyldimethysilyl-N-methyltrifluoro-acetamide (MTBSTFA) was added to microcentrifuge tubes, vortexed, and heated at approximately 60° C. for 40 min. At the end of 40 min, the derivatized samples were analyzed via LC/MS/MS. Chromatographic analysis was performed using an Accela™ ultra high-performance system consisting of an analytical pump, and an autosampler coupled with TSQ Vantage mass spectrometer (Thermo Fisher Scientific Inc., Waltham Mass.). […] The [M+H]+ ion transitions of derivatized 2-PMPA at m/z 683.0>551.4 and that of the internal standard at m/z 669.0>537.2 were monitored with the total run time of 5 min. […]

PSMA = target: T1, PSMA (Mus musculus, UniProt O35409); test: GCPII (PSMA) ex vivo activity assay on mucosa extract of DSS colitis mice; type: biochemical; settings: DSS-treated mice, extract from mucosa; FIG. 4
T1 construct: from tissue; host or cells: colonic or cecal mucosa of C57/B6 mice with DSS-induced colitis (sonicated tissue lysate supernatant)
Experimental: On the day of the ex vivo experiment, the tissues were weighed and immersed in 0.5 ml of ice-cold 50 mM Tris Buffer (pH 7.7 at RT). While on ice, each tissue was sonicated for 30-60 seconds (medium output, 60) via use of a Kontes Ultrasonic Cell Disrupter. After a 2 min spin at 13,000 rpm, supernatants were analyzed for protein content (Dc Protein Assay Kit; Bio Rad). NAAG-hydrolyzing activity measurements were carried out, based on published procedures Robinson et al., 1987; Rojas et al., 2002). Briefly, the reaction mixture (total volume of 50 μL) contained NAA[3H]G (70 nM, 50 Ci/mmol) and tissue lysates (7 concentrations each, tested in quadruplicate), in Tris-HCl (pH 7.4, 40 mM) containing 1 mM CoCl2. Assay standards were comprised of human recombinant GCPII enzyme (40-200 pM, final). The reaction was carried out at 37° C. for 40-45 min and stopped with ice-cold sodium phosphate buffer (pH 7.4, 0.1 M, 50 μL). Blanks were obtained by incubating the reaction mixture in the absence of enzyme source. A 90 μL aliquot from each terminated reaction was transferred to a well in a 96-well spin column containing AG1X8 ion-exchange resin; the plate was centrifuged at 1500 rpm for 5 min using a Beckman GS-6R centrifuge equipped with a PTS-2000 rotor. […] The radioactivity corresponding to [3H]-G was determined with a scintillation counter (Topcount NXT, Packard, counting efficiency 80%). […]

T1 sequence (O35409 whole entry): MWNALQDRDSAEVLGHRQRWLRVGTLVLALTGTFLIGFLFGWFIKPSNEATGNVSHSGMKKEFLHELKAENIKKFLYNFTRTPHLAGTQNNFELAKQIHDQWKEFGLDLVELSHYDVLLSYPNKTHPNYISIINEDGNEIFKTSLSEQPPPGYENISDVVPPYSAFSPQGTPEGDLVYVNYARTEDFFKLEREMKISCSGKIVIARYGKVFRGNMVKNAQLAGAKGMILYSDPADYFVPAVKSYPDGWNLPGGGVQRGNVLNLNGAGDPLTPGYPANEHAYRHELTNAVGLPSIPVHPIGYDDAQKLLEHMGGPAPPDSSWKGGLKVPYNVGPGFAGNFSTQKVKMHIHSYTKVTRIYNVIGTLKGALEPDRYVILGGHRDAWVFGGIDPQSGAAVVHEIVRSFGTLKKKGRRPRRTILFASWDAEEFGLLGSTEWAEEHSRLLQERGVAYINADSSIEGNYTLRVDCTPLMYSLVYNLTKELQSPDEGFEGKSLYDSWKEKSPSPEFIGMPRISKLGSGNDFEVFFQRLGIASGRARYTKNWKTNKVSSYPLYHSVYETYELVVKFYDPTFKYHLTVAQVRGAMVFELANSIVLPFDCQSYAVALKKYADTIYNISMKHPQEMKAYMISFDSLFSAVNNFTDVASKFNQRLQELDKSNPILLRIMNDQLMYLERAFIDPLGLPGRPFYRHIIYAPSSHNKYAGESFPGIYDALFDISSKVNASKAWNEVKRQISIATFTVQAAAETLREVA

| SMILES | Disease activity index (DAI) (DSS-induced colitis; DSS 2.5%, 7 days in drinking water, 2-PMPA 100 mg/kg given simultaneously, vs vehicle, P<0.05, FIG. 3) | size and weight of spleen (DSS-induced colitis; DSS-induced murine model of colitis, FIG. 5) | spleen inflammation (DSS-induced colitis; mice with DSS-colitis, FIG. 5) | mice with complete retraction of prolapse ([1]; 2 of the 20 IL-10 KO mice treated, 100 mg/kg for 2 weeks, FIG. 6D) [%] | disease severity (macroscopic disease, colonic hypotrophy, stool consistency) ([1]; IL-10 KO mice, 3 month old, 2-PMPA 100 mg/kg for 2 weeks, FIGS. 6A-6B) | body weight of prolapse-retracting mice ([1]; compared to untreated control IL-10 KO mice, FIG. 6C) | 2-PMPA concentration in plasma and colon [2] | PSMA activity in the colonic and cecal mucosa (PSMA) | colon shortening of DSS-colitis mice (DSS-induced colitis; oral administration, n=5 per group, P 0.06, not statistically significant, FIG. 9) |
| --- | --- | --- | --- | --- | --- | --- | --- | --- | --- |
| O=C(O)CCC(CP(=O)(O)O)C(=O)O (stereo not drawn) [2-PMPA, 2-(phosphonomethyl)-pentanedioic acid] | ameliorates disease activity | reduces | significantly reduced | 10 | significantly reduced | increased dramatically | approximately 25 μM | potently inhibited |  |
| CC(C)OC(=O)OCOC(=O)C(CCC(=O)O)CP(=O)(OCOC(=O)OC(C)C)OCOC(=O)OC(C)C (stereo not drawn) [Tris-POC-2-PMPA] |  |  |  |  |  |  |  |  | reversed |
